# Source: patent US6541208B1, “Diagnostic method for distinguishing HIV-associated dementia from other forms of dementia” (University of Maryland Biotechnology Institute, priority 1998, dated 2003)
# How the values were obtained:
# [1] = tested on: astrocytic MCP-1 expression; experiment: Northern blot analysis of MCP-1 RNA in stimulated human astrocytes; format: cell-based
# Text: FIG. 1A—Total RNA was extracted from T lymphoblastoid HUT 78 cells (ATCC), and from variously treated human astrocytes. Ten μg per lane were then run on a 1% agarose-6% formaldehyde gel. Following transfer of RNA to nitrocellulose, the blot was probed with the full-length cDNA for MCP-1, and subsequently, RANTES. RNA from untreated astrocytes was run in lanes 2 and 4. […] Astrocytic expression of RANTES was not detected.
# FIG. 1B—Similar experience except that RNA from HUT 78 cells (lane 1) was compared to RNA from astrocytes that were unstimulated (lane 2) or stimulated for 2 hr with 100 nM Tat (lane 3), 25 μM TPCK followed by 100 nM Tat (lane 4) or 25 μM TPCK (lane 5).
# Brain tissue from 12-14 wk human fetuses was obtained in accordance with NIH guidelines. The tissue was mechanically disrupted by aspiration through a 19-gauge needle, washed in Eagle's minimal essential medium (EMEM) and then distributed into tissue culture flasks. Cells were maintained in EMEM containing 10% fetal bovine serum, 2 mM L-glutamine and 5 μg/ml gentamicin. Several days later, flasks were placed into an orbital incubator shaker at 37° C. and 210 rpm for 6 hr. Non-adherent cells were removed. A portion of the adherent cells were later stained with an antibody to glial fibrallary acidic protein and only those cultures which were >95% positive were used. […]
# MCP-1 activity = conditions: point mutations Thr-10 to Arg and Tyr-13 to Ile; cited from earlier work
molecule,measurement,setting,value
"Cc1ccc(S(=O)(=O)N[C@@H](Cc2ccccc2)C(=O)CCl)cc1 [TPCK, n-tosli-L-phenylalanine chloromethyl ketone, reference compound]",effect on Tat-induced increase in MCP-1 encoding RNA,"[1]; 25 μM TPCK followed by 100 nM Tat, 2 hr",inhibited
interleukin-1β: cytokine used at 5 ng/ml to stimulate astrocytes [reference compound],astrocytic MCP-1 expression (MCP-1 encoding RNA),"[1]; 5 ng/ml interleukin-1β, 4 hr stimulation, human astrocytes",increase in astrocytic MCP-1 expression
"MCP-1 protein with point mutations of Thr-10 to Arg and Tyr-13 to Ile: mutant MCP-1 protein from Beal et al., contemplated as MCP-1 antagonist",MCP-1 activity of the mutant protein,MCP-1 activity,greatly reduced MCP-1 activity
